In US20240246968A1, “SMALL MOLECULE INHIBITORS OF KRAS G12C MUTANT” (Merck Sharp & Dohme LLC, priority 2021, published 2024) one finds binding rate and IC50 data, which are given here for seven molecules.

Assay [1] has as its target Gppcp-bound recombinant K-Ras4B G12C mutant protein (amino acids 1-169, C51S/C80L/C118S) (Homo sapiens, UniProt P01116, C118S/C51S/C80L/G12C). In words: KRASG12C binding assay (LC-MS, compound binding rate). The conditions noted are these: test compound final concentration 0.5 μM, 25° C., 1 hour. The method, boiled down:
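Gppcp-bound K-Ras4B G12C (1-169; C51S/C80L/C118S), 50 nM in TBS with 0.1 mM TCEP, 0.25 mM MgCl2, 50 μM Gppcp, exposed to compound at 0.5 μM final for 1 h at 25 °C. Quenched with formic acid and analysed by intact-protein ESI LC-MS. Binding rate is the mono-adduct signal over total KRAS signal; graded A (≥80%) to E (<20%).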

For a further assay, the system named is MIA PaCa-2 cells. Briefly: Growth inhibition activity on KRAS-G12C mutant cell line (MIA PaCa-2), CellTiter-Glo 3D. It counts as cell-based, human. To be noted: MIA PaCa-2, 3-day culture with compound. The method, boiled down:
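Cells in RPMI1640 with 10% FBS were seeded in U-bottom plates and cultured 1 day at 37 °C, 5% CO2, then exposed to compound (0.2% DMSO final) for 3 more days. Viability read by CellTiter-Glo 3D luminescence; IC50 from growth inhibition relative to untreated wells.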
(In general: In ATP-based viability assays light output follows the ATP content of the culture.)

Assay [2] deals with T1, interaction between recombinant K-Ras4B G12C mutant protein and cRAF RAS-binding domain (cRAF-RBD) (Homo sapiens, UniProt P01116, G12C).
T1 construct: made in house; host or cells: E. coli
Briefly: Inhibitory activity on interaction between KRAS G12C and cRAF (Alpha technology). The class given is biochemical. The conditions noted are these: GMPPNP-bound KRAS G12C incubated with compound at 25° C. for 1 hour, then cRAF-RBD; Alpha signal. The method, boiled down:
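GMPPNP-loaded His-tagged KRAS G12C (aa 1-169, E. coli) preincubated with compound 1 h at 25° C in Tris pH 7.5, 100 mM NaCl, 1 mM MgCl2, TCEP, 0.1% Tween 20; cRAF-RBD (aa 50-132) added, 1.5 h RT, Alpha signal read. DMSO = 0%, GDP-bound KRAS = 100% inhibition; IC50 from dose titration fit.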

As a reminder, the IC50 is the concentration at which inhibition is half-maximal. Consider `CO[C@H]1CC[C@H](NC/C=C/C(=O)Nc2c(F)cc(C(=O)c3c(C4CC4)nc4c(-c5cc6nc(C)n(C)c6cc5C(F)(F)F)cccn34)cc2F)CC1` [Example 95, (E)-N-(4-(2-cyclopropyl-8-(1,2-dimethyl-6-(trifluoromethyl)-1H-benzo[d]imidazol-5-yl)imidazo[1,2-a]pyridine-3-carbonyl)-2,6-difluorophenyl)-4-(((1r,4r)-4-methoxycyclohexyl)amino)but-2-enamide], for which the binding rate result in assay [1] is on record as “A (A binding rate of 80% or more is rated “A”)”. Moreover, the 50% inhibitory concentration (IC50) with MIA PaCa-2 cells (Homo sapiens, MIA PaCa-2, 72 h) amounted to 280 nM; in assay [2], 130 nM.
In the case of `COc1cc(N2CCCC2=O)cc(Cl)c1-c1cccn2c(C(=O)c3cc(F)c(NC(=O)/C=C/CN[C@H]4CC[C@H](OC)CC4)c(F)c3)ccc12` (single isomer, unassigned) [Example 30-1, (E)-N-(4-(8-(2-chloro-6-methoxy-4-(2-oxopyrrolidin-1-yl)phenyl)indolizine-3-carbonyl)-2,6-difluorophenyl)-4-(((1r,4r)-4-methoxycyclohexyl)amino)but-2-enamide], the binding rate result in assay [1] is recorded as “A (A binding rate of 80% or more is rated “A”)”. Besides, the half-maximal inhibitory concentration (IC50) in the assay with MIA PaCa-2 cells stood at 360 nM; in assay [2], 130 nM.
Consider `COc1cc2c(c(F)c1-c1cccn3c(C(=O)c4cc(F)c(NC(=O)/C=C/CNC5(C)CC5)c(F)c4)ccc13)c(=O)ncn2C` [Example 114], for which the binding rate entry in assay [1] is recorded as “A (A binding rate of 80% or more is rated “A”)”. Also, the IC50 with MIA PaCa-2 cells (Homo sapiens, MIA PaCa-2, 72 h) is 1070 nM; in assay [2] it was 18.9 nM.
For `CCc1cc2c(nc(C)n2C)c(Cl)c1-c1cccn2c(C(=O)c3cc(F)c(NC(=O)/C=C/CN[C@H]4CC[C@H](OC)CC4)c(F)c3)ccc12` (single isomer, unassigned) [Example 22-2, (E)-N-(4-(8-(4-chloro-6-ethyl-1,2-dimethyl-1H-benzo[d]imidazol-5-yl)indolizine-3-carbonyl)-2,6-difluorophenyl)-4-(((1r,4r)-4-methoxycyclohexyl)amino)but-2-enamide], in assay [1], the binding rate result is given as “A (A binding rate of 80% or more is rated “A”)”. The IC50 in the assay on MIA PaCa-2 cells was found to be 410 nM; in assay [2], 110 nM.
Take `CO[C@H]1CC[C@H](NC/C=C/C(=O)Nc2c(F)cc(C(=O)c3ccc4c(-c5c(C)cc6c(ncn6C)c5Cl)cccn34)cc2F)CC1` (single isomer, unassigned) [Example 12-2, (E)-N-(4-(8-(4-chloro-1,6-dimethyl-1H-benzo[d]imidazol-5-yl)indolizine-3-carbonyl)-2,6-difluorophenyl)-4-(((1r,4r)-4-methoxycyclohexyl)amino)but-2-enamide]: in assay [1], the binding rate result was “B (a binding rate of 60% or more and less than 80% is rated “B”)”. The IC50 with MIA PaCa-2 cells is 270 nM; in assay [2], 160 nM.
On to `COc1cc2c(ncn2C)c(Cl)c1-c1cccn2c(C(=O)c3cc(F)c(NC(=O)/C=C/CNC(C)(C)C)c(F)c3)ccc12` (single isomer, unassigned) [Example 14-1, (E)-4-(tert-butylamino)-N-(4-(8-(4-chloro-6-methoxy-1-methyl-1H-benzo[d]imidazol-5-yl)indolizine-3-carbonyl)-2,6-difluorophenyl)but-2-enamide], for which, in assay [1], the binding rate result was “A (A binding rate of 80% or more is rated “A”)”. Also, the IC50 worked out at 28 nM with MIA PaCa-2 cells (Homo sapiens, MIA PaCa-2, 72 h) and 57 nM in assay [2].
As for `Cc1nc2c(Cl)c(-c3cccn4c(C(=O)c5cc(F)c(NC(=O)/C=C/CNC(C)(C)C)c(F)c5)ccc34)c(C(F)(F)F)cc2n1C` (single isomer, unassigned) [Example 56-1, (E)-4-(tert-butylamino)-N-(4-(8-(4-chloro-1,2-dimethyl-6-(trifluoromethyl)-1H-benzo[d]imidazol-5-yl)indolizine-3-carbonyl)-2,6-difluorophenyl)but-2-enamide], the binding rate result in assay [1] is reported as “A (A binding rate of 80% or more is rated “A”)”. For the same molecule, the IC50 with MIA PaCa-2 cells turned out to be 1100 nM; in assay [2], 450 nM.
